Assay results published in BindingDB's records for PubMed 33129590 (Key Laboratory of Technology of Drug Preparation (Zhengzhou …, 2021).

Columns and labels:
[1] = biological target: Prostaglandin G/H synthase 2 (Homo sapiens) (UniProt P35354); assay: Inhibition of COX-2 (unknown origin)
[2] = biological target: Prostaglandin G/H synthase 1 (Homo sapiens) (UniProt P23219); assay: Inhibition of COX-1 (unknown origin)
[3] = biological target: Poly [ADP-ribose] polymerase 1 (Homo sapiens, UniProt P09874); assay: Displacement of [125I]KX1 from PARP1 in human OVCAR-8 cells incubated for 1 hr by wizard gamma counter analysis
Sequence of Poly [ADP-ribose] polymerase 1 (P09874 whole entry): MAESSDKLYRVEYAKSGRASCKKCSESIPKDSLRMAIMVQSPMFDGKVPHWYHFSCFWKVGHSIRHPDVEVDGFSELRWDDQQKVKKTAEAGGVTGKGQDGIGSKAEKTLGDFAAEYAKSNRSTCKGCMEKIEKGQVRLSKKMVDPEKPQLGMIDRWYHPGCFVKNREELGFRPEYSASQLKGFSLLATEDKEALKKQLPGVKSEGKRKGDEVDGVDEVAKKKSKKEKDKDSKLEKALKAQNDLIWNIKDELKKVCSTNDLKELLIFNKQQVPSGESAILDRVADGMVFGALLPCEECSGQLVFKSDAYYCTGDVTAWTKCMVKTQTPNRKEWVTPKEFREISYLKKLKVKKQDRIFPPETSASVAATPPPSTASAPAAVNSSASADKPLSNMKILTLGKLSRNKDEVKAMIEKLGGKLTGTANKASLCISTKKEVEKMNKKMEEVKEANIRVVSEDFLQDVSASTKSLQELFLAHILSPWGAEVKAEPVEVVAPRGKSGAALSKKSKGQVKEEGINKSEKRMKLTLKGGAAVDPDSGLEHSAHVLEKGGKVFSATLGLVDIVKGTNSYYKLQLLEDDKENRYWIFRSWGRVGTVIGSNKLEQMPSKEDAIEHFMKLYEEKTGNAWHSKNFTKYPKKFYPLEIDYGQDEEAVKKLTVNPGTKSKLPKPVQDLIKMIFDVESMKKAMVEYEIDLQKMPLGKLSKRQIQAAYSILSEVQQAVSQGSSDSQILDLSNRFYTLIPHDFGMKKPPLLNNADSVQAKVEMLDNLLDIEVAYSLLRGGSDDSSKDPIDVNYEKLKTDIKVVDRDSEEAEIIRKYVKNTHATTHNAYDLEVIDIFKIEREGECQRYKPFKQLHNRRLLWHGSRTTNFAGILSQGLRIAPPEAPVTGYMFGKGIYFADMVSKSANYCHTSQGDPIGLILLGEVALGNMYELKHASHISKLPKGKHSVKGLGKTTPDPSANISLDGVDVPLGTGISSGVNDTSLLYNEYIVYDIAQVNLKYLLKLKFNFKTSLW

Sequence of Prostaglandin G/H synthase 2 (Homo sapiens) (P35354 whole entry, looked up): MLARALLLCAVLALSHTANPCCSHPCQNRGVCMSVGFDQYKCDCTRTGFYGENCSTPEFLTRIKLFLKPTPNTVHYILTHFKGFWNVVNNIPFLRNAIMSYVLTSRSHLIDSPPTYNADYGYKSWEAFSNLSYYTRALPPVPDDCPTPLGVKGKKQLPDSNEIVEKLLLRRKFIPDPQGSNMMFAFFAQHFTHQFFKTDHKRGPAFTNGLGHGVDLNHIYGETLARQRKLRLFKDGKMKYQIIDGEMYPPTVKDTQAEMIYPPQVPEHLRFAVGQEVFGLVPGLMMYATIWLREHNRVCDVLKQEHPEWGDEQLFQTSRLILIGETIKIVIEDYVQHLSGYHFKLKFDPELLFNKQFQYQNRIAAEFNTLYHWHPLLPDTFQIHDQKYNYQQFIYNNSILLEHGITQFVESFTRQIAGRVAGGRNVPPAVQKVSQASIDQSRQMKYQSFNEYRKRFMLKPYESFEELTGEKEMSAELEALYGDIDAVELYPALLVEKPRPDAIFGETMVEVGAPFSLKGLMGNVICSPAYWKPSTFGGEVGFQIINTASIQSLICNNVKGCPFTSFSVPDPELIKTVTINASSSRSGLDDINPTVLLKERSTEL

COc1ccc(-c2nc(N3N=C(c4ccc(F)cc4)CCC3=O)n(C)c(=O)c2C#N)cc1
IC50 [1]: 1.4 µM | IC50 [2]: 115 µM

COC1CC(NC(=O)c2cc(Cc3n[nH]c(=O)c4ccccc34)ccc2F)C1 (stereo not drawn)
IC50 [3]: 0.044 µM
